Biological target: T1, human M4 receptor (Homo sapiens, UniProt P08173)
T1 construct: expressed in transfected cells; host or cells: CHO cells
T1 sequence (P08173 1-479): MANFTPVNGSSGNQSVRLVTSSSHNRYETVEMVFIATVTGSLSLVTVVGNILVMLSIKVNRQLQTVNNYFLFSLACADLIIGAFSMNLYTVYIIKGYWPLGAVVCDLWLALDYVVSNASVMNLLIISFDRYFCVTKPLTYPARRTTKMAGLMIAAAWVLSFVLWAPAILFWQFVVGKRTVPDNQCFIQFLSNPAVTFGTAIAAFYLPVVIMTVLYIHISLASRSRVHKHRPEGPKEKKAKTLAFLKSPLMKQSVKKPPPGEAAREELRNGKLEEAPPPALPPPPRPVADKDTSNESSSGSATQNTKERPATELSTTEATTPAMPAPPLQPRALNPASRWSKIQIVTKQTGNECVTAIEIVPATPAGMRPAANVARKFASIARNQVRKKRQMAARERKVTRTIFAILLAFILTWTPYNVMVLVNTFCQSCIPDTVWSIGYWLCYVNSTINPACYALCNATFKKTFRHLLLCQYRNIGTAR
Experiment: Radioligand ([3H]N-methylscopolamine) binding assay, membranes from CHO cells expressing human M4 receptor
Details: Ki against human M4 receptor; membranes from CHO cells; tritiated N-methylscopolamine 1.5 nM; read-out: K
Outline: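 Ki values derive from displacement of tritiated N-methylscopolamine (1.5 nM) from human M4 receptor in CHO membranes. Membranes, radioligand and twelve-point compound series were incubated together at 37 °C for 90 minutes in pH 7.4 HEPES/NaCl/MgCl2/EDTA buffer. Rapid vacuum filtration over polyethylenimine-pretreated filters was followed by radioactivity counting.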

SMILES	Ki
C[C@@H]1CN(c2cnc(OC(F)(F)F)cn2)[C@@H](C)CN1C(=O)OC1CC2(C1)CN(Cc1ccccc1)C2 [Compound 204, 2-benzyl-2-azaspiro[3.3]heptan-6-yl (2R,5S)-2,5-dimethyl-4-[5-(tifluoromethoxy)pyrazin-2-yl]piperazine-1-carboxylate]	< 10 nM
C[C@@H]1CN(c2cnc(OC(F)(F)F)cn2)[C@H](C)CN1C(=O)OC1CC2(C1)CN(Cc1ccccc1)C2 [Compound 205, 2-benzyl-2-azaspiro[3.3]heptan-6-yl (2R,5R)-2,5-dimethyl-4-[5-(trifluoromethoxy)pyrazin-2-yl]piperazine-1-carboxylate]	10 to 100 nM
C[C@@H]1CN(c2ncc3ccccc3n2)[C@@H](C)CN1C(=O)NC1CC2(C1)CN(Cc1ccccc1)C2 [Compound 212, (2R,5S)-N-{2-benzyl-2-azaspiro[3.3]heptan-6-yl}-2,5-dimethyl-4-(quinazolin-2-yl)piperazine-1-carboxamide]	< 10 nM
C[C@@H]1CN(c2ncc3ccccc3n2)CCN1C(=O)NC1CC2(C1)CN(Cc1ccccc1)C2 [Compound 213, (2R)-N-{2-benzyl-2-azaspiro[3.3]heptan-6-yl}-2-methyl-4-(quinazolin-2-yl)piperazine-1-carboxamide]	10 to 100 nM
C[C@@H]1CN(c2cnc3ccccc3n2)C[C@H](C)N1C(=O)NC1CC2(C1)CN(Cc1ccccc1)C2 [Compound 214, (2R,6S)-N-{2-benzyl-2-azaspiro[3.3]heptan-6-yl}-2,6-dimethyl-4-(quinoxalin-2-yl)piperazine-1-carboxamide]	10 to 100 nM
COc1ccc2nc(N3C[C@@H](C)N(C(=O)NC4CC5(C4)CN(Cc4ccccc4)C5)[C@@H](C)C3)cnc2c1 [Compound 215, (2R,6S)-N-{2-benzyl-2-azaspiro[3.3]heptan-6-yl}-4-(6-methoxyquinoxalin-2-yl)-2,6-dimethylpiperazine-1-carboxamide]	10 to 100 nM
C[C@@H]1CN(c2nc3ccc(C(F)(F)F)cc3s2)C[C@H](C)N1C(=O)NC1CC2(C1)CN(Cc1ccccc1)C2 [Compound 216, (2R,6S)-N-{2-benzyl-2-azaspiro[3.3]heptan-6-yl}-2,6-dimethyl-4-[6-(trifluoromethyl)-1,3-benzothiazol-2-yl)piperazine-1-carboxamide]	< 10 nM
C[C@@H]1CN(c2nc3ccc(C(F)(F)F)cc3s2)C[C@@H](C)N1C(=O)NC1CC2(C1)CN(Cc1ccccc1)C2 [Compound 217, (2R,6R)-N-{2-benzyl-2-azaspiro[3.3]heptan-6-yl}-2,6-dimethyl-4-[6-(trifluoromethyl)-1,3-benzothiazol-2-yl]piperazine-1-carboxamide]	< 10 nM
COc1ccc2nc(N3C[C@@H](C)N(C(=O)NC4CC5(C4)CN(Cc4ccccc4)C5)[C@H](C)C3)cnc2c1 [Compound 219, (2R,6R)-N-{2-benzyl-2-azaspiro[3.3]heptan-6-yl}-4-(6-methoxyquinoxalin-2-yl)-2,6-dimethylpiperazine-1-carboxamide]	10 to 100 nM
COc1ccc2nc(N3C[C@@H](C)N(C(=O)NC4CC5(C4)CN(Cc4ccccc4)C5)C[C@@H]3C)cnc2c1 [Compound 222, (2R,5S)-N-{2-benzyl-2-azaspiro[3.3]heptan-6-yl}-4-(6-methoxyquinoxalin-2-yl)-2,5-dimethylpiperazine-1-carboxamide]	< 10 nM
C[C@@H]1CN(c2cnc3ccccc3n2)CCN1C(=O)NC1CC2(C1)CN(Cc1ccccc1)C2 [Compound 224, (2R)-N-{2-benzyl-2-azaspiro[3.3]heptan-6-yl}-2-methyl-4-(quinoxalin-2-yl)piperazine-1-carboxamide]	10 to 100 nM
C[C@@H]1CN(c2nc3ccc(C(F)(F)F)cc3s2)CCN1C(=O)NC1CC2(C1)CN(Cc1ccccc1)C2 [Compound 225, (2R)-N-{2-bnezyl-2-azaspiro[3.3]heptan-6-yl}-2-methyl-4-[6-(trifluoromethyl)-1,3-benzothiazol-2-yl]piperazine-1-carboxamide]	< 10 nM
C[C@@H]1CN(c2ncc(C(F)(F)F)cc2F)C[C@H](C)N1C(=O)NC1CC2(C1)CN(Cc1ccccc1)C2 [Compound 227, (2R,6S)-N-{2-benzyl-2-azaspiro[3.3]heptan-6-yl}-4-[3-fluoro-5-(trifluoromethyl)pyridin-2-yl]-2,6-dimethylpiperazine-1-carboxamide]	< 10 nM
C[C@@H]1CN(c2nc3ccc(F)cc3s2)C[C@H](C)N1C(=O)NC1CC2(C1)CN(Cc1ccccc1)C2 [Compound 231, (2R,6S)-N-{2-benzyl-2-azaspiro[3.3]heptan-6-yl}-4-(6-fluoro-1,3-benzothiazol-2-yl)-2,6-dimethylpiperazine-1-carboxamide]	< 10 nM
C[C@@H]1CN(c2nc3ccc(F)cc3s2)[C@@H](C)CN1C(=O)NC1CC2(C1)CN(Cc1ccccc1)C2 [Compound 233, (2R,5S)-N-{2-benzyl-2-azaspiro[3.3]heptan-6-yl}-4-(6-fluoro-1,3-benzothiazol-2-yl)-2,5-dimethylpiperazine-1-carboxamide]	< 10 nM
C[C@@H]1CN(c2nc3ccc(F)cc3s2)CCN1C(=O)NC1CC2(C1)CN(Cc1ccccc1)C2 [Compound 234, (2R)-N-{2-benzyl-2-azaspiro[3.3]heptan-6-yl}-4-(6-fluoro-1,3-benzothiazol-2-yl)-2-methylpiperazine-1-carboxamide]	< 10 nM
C[C@@H]1CN(c2cnc3cc(C(F)(F)F)ccc3n2)C[C@H](C)N1C(=O)NC1CC2(C1)CN(Cc1ccccc1)C2 [Compound 235, (2R,6S)-N-{2-benzyl-2-azaspiro[3.3]heptan-6-yl}-2,6-dimethyl-4-[6-(trifluoromethyl)quinoxalin-2-yl]piperazine-1-carboxamide]	10 to 100 nM
C[C@@H]1CN(c2cnc3cc(C(F)(F)F)ccc3n2)[C@@H](C)CN1C(=O)NC1CC2(C1)CN(Cc1ccccc1)C2 [Compound 237, (2R,5S)-N-{2-benzyl-2-azaspiro[3.3]heptan-6-yl}-2,5-dimethyl-4-[6-(trifluoromethyl)quinoxalin-2-yl]piperazine-1-carboxamide]	< 10 nM
COc1ccc2nc(N3C[C@@H](C)N(C(=O)NC4CC5(C4)CN(Cc4ccccc4)C5)[C@H](C)C3)sc2c1 [Compound 242, (2R,6R)-N-{2-benzyl-2-azaspiro[3.3]heptan-6-yl}-4-(6-methoxy-1,3-benzothiazol-2-yl)-2,6-dimethylpiperazine-1-carboxamide]	< 10 nM
C[C@@H]1CN(c2nc3ccccc3s2)[C@@H](C)CN1C(=O)NC1CC2(C1)CN(Cc1ccccc1)C2 [Compound 244, (2R,5S)-4-(1,3-benzothiazol-2-yl)-N-{2-benzyl-2-azaspiro[3.3]heptan-6-yl}-2,5-dimethylpiperazine-1-carboxamide]	< 10 nM
C[C@@H]1CN(c2nc3ccccc3s2)CCN1C(=O)NC1CC2(C1)CN(Cc1ccccc1)C2 [Compound 245, (2R)-4-(1,3-benzothiazol-2-yl)-N-{2-benzyl-2-azaspiro[3.3]heptan-6-yl}-2-methylpiperazine-1-carboxamide]	10 to 100 nM
C[C@@H]1CN(c2ncc(OC(F)F)cn2)C[C@H](C)N1C(=O)NC1CC2(C1)CN(Cc1ccccc1)C2 [Compound 247, (2R,6S)-N-{2-benzyl-2-azaspiro[3.3]heptan-6-yl}-4-[5-(difluoromethoxy)pyrimidin-2-yl]-2,6-dimethylpiperazine-1-carboxamide]	10 to 100 nM
C[C@@H]1CN(c2ncc(C(F)(F)F)c(N)n2)C[C@H](C)N1C(=O)NC1CC2(C1)CN(Cc1ccccc1)C2 [Compound 248, (2R,6S)-4-[4-amino-5-(trifluoromethyl)pyrimidin-2-yl]-N-{2-benzyl-2-azaspiro[3.3]heptan-6-yl}-2,6-dimethylpiperazine-1-carboxamide]	< 10 nM
C[C@@H]1CN(c2ncc(F)cn2)C[C@H](C)N1C(=O)NC1CC2(C1)CN(Cc1ccccc1)C2 [Compound 250, (2R,6S)-N-{2-benzyl-2-azaspiro[3.3]heptan-6-yl}-4-(5-fluoropyrimidin-2-yl)-2,6-dimethylpiperazine-1-carboxamide]	100 to 1000 nM
C[C@@H]1CN(c2ncc(C#N)cn2)C[C@H](C)N1C(=O)NC1CC2(C1)CN(Cc1ccc(Cl)cc1)C2 [Compound 251, (2R,6S)-N-{2-[(4-chlorophenyl)methyl]-2-azaspiro[3.3]heptan-6-yl}-4-(5-cyanopyrimidin-2-yl)-2,6-dimethylpiperazine-1-carboxamide]	10 to 100 nM
C[C@@H]1CN(c2ncc(C(F)(F)F)cn2)C[C@@H](C)N1C(=O)NC1CC2(C1)CN(Cc1ccc(Cl)cc1)C2 [Compound 255, (2R,6R)-N-{2-[(4-chlorophenyl)methyl]-2-azaspiro[3.3]heptan-6-yl}-2,6-dimethyl-4-[5-(trifluoromethyl)pyrimidin-2-yl]piperazine-1-carboxamide]	10 to 100 nM
C[C@@H]1CN(c2ncc(C(F)(F)F)cn2)[C@@H](C)CN1C(=O)NC1CC2(C1)CN(Cc1ccc(Cl)cc1)C2 [Compound 256, (2R,5S)-N-{2-[(4-chlorophenyl)methyl]-2-azaspiro[3.3]heptan-6-yl}-2,5-dimethyl-4-[5-(trifluoromethyl)pyrimidin-2-yl]piperazine-1-carboxamide]	< 10 nM

— patent US20230129359A1, “MUSCARINIC RECEPTOR 4 ANTAGONISTS AND METHODS OF USE” (Neurocrine Biosciences, Inc., priority 2020, published 2023)
